Laboratory results published in PMC11589101, “Profiling the endocrine-disrupting properties of triazines, triazoles, and short-chain PFAS” (Toxicological Sciences, 2024).

Tests used:
H295R cells = assay: MTT cell viability assay in H295R cells; type: cell-based, human; conditions: 48 h; for decrease in cell viability at highest exposure concentration: 25 μM; for highest exposure concentration with <10% decrease in cell viability: H295R cells
Protocol: (§1) For the H295R assay, the culturing and exposure of cells were performed according to OECD Test Guideline No. 456 ([OECD 2011]). All experiments were performed using cells in passages 5 to 10. First, the highest noncytotoxic concentration (<10% decrease in viability) was determined for each compound with MTT assays. Next, the levels of 13 steroid hormones were determined in the medium after exposure of the H295R cells to the highest noncytotoxic concentration using LC-MS/MS. These concentrations were tested in triplicate (n = 3) in 3 independent experiments (N = 3), and all 9 samples were measured in LC-MS/MS. […] These dilution series were tested in 3 independent experiments (N = 3), with triplicate exposures in each of these experiments (n = 3). Supernatants of the triplicate exposures per experiment were pooled after the 48 h of exposure and the 3 pooled samples were measured with LC-MS/MS. This was done to keep the number of LC-MS/MS measurements manageable.
(§2) After 48 h of exposure, the supernatant medium from each well was transferred to the wells of a clean 48-well plate, and that plate was stored at −80 °C for later steroid measurement. MTT assays were performed by adding 500 μl of 0.5 mg/ml MTT (3-(4,5-dimethylthiazol-2-yl)-2,5-diphenyltetrazolium bromide; Sigma-Aldrich) solution in medium to each well of the 24-well cell culture plate and incubating for 1 h at 37 °C with 5% CO2. After incubation, the MTT solution was discarded and 500 μl of DMSO was added to each well to lyse the cells and dissolve the formazan crystals. Plates were shaken at 700 rpm for 10 min and absorbance was measured at 560 nm wavelength. Concentrations causing >10% decrease in cell viability were excluded from the hormone analysis, and test compounds were retested at a lower concentration.

[1] = target: T1, human transthyretin (TTR) (Homo sapiens, UniProt P02766); assay: FITC-T4 TTR-binding assay, initial (original) method; conditions: for IC10 competing with FITC-T4 for binding to TTR: initial method, 110 nM FITC-T4, 30 nM TTR
Protocol: (§3) All incubations were performed at room temperature.
(§4) Fluorescence enhancement was determined for each well by subtracting its relative fluorescence units (RFU) before TTR addition from its RFUs after TTR addition. The resulting values were normalized to percentages of the vehicle control. A concentration–response curve was fitted through the data using the same model as in the reporter gene assays.
After 15 min of incubation, fluorescence was measured and fluorescence enhancement was calculated by subtracting RFU without TTR from RFU with TTR. Further data analysis was similar to the screening assays.

[2] = target: T1, human transthyretin (TTR); assay: FITC-T4 TTR-binding assay, screening method
Protocol: as §3
In the screening tests, 48 μl of Tris-HCl buffer (pH 8.0) was added to each well of black low-binding 96-well plates. Two microliters of each test compound dissolved in their respective solvent was added to each well and the plate was shaken at 600 rpm for 5 min. […] Fluorescence was measured again to check for possible autofluorescence or quenching by the test compound.
as §4

[3] = test system: steroidogenesis in H295R cells; type: cell-based, human; conditions: 48 h; for effect on steroid hormone levels compared with vehicle-treated controls / increased levels of 17α-OH-progesterone compared with vehicle-treated controls: highest noncytotoxic exposure concentration; for increased levels of progesterone and 17α-OH-progesterone compared with vehicle-treated controls: H295R
Protocol: as §1, with “All” for “For the H295R assay, the culturing and exposure of cells were performed according to OECD Test Guideline No. 456 ([OECD 2011]). All”
The exposure medium was prepared by diluting stock solutions 1,000× in the cell culture medium to obtain a final concentration of 0.1% of the solvent. Exposure was started by replacing cell culture medium with the exposure medium. […] On a separate quality control plate, cells were exposed to 10 μM forskolin (Sigma-Aldrich) and 1 μM prochloraz (Sigma-Aldrich) to serve as positive control for increased and decreased steroid hormone secretion, respectively. Exposure was started by replacing the culture medium in the cell culture plates with the exposure medium.
as §2, with “wavelength.” for “wavelength. Concentrations causing >10% decrease in cell viability were excluded from the hormone analysis, and test compounds were retested at a lower concentration.”
Hormones were concentrated from supernatants by solid phase extraction using Bond Elut Plexa cartridges, 30 mg sorbent, 1.8 ml (Agilent Technologies, Santa Clara, CA, United States). The cartridges were conditioned with 1 ml of 0.5% formic acid in methanol, and subsequent addition of 1 ml of 0.5% formic acid in water. A mix of 100 μl of H295R medium sample in 1 ml of 2% formic acid in water and 50 μl of isotopically labeled internal standards mix (Table S1) was loaded on the cartridges. These were then washed with 1 ml of water followed by 1 ml of water–methanol mixture (70:30, v/v). Cartridges were dried by vacuum and the hormones were eluted with 700 μl of methanol into 96-well-deep well polypropylene plates. Eluates were evaporated to dryness during approximately 2 h in a refrigerated CentriVap vacuum concentrator and reconstituted in 150 μl of water–methanol mixture (1:1, v/v). Additionally, a serial 12-point dilution series of a mix of native steroid hormones was prepared to fit a calibration curve in order to quantify steroid concentrations.
The steroid hormones were separated prior to MS measurements on a Kinetex C18 LC Column (2.6 μm, 100 × 2.1 mm; Phenomenex, CA, United States) coupled to an Exion LC system (SCIEX, Framingham, MA, United States). The mobile phase consisted of 0.2 mM NH4F in water and pure methanol and was delivered at a flow rate of 0.6 ml/min in a gradient elution mode. The injection volume was 10 μl.
The LC-MS/MS raw data were processed using AB Sciex OS Analyst version 1.6.2 (SCIEX, Framingham, MA, United States) to calculate fold changes by dividing the measured hormone concentrations by the hormone concentrations in the vehicle controls. The fold changes were used to fit a concentration–response curve in GraphPad Prism using the same model as in the reporter gene assays, and the ECIR1.5 was estimated for each compound.

VM7Luc4E2 cells = assay: Resazurine cell viability assay in VM7Luc4E2 cells; type: cell-based, human; conditions: 24 h
[4] = test system: AR-Ecoscreen-GR-KO M1 cells; assay: Resazurine cell viability assay in AR-Ecoscreen-GR-KO M1 cells; conditions: 24 h
Protocol: The cell culture medium was discarded and replaced with 100 μl of fresh assay medium. […] Exposure conditions (24 h; 37 °C; 5% CO2), resazurine assay, and luciferase measurements were similar to described for the VM7Luc4E2 cells.

GH3.TRE cells = assay: Resazurine cell viability assay in GH3.TRE cells
Protocol: Exposure medium was added to the cells immediately after seeding. […] Exposure conditions, resazurine assay, and luciferase measurements were similar as described for the VM7Luc4E2 cells.

[5] = test system: thyroid hormone receptor (TR); assay: TR-Luc reporter gene assay, antagonism (coexposure with 110 pM T3); type: cell-based; conditions: for TR antagonism % max combined: coexposure with 110 pM T3; for IC50 / TR antagonism IC10: GH3.TRE cells, coexposed with 110 pM T3, 24 h

Row | Compound | effect on steroid hormone levels compared with vehicle-treated controls [3] | cytotoxicity in the resazurine assay ([4]; 100 μM) | cytotoxicity (GH3.TRE cells; 100 μM) | increased levels of progesterone and 17α-OH-progesterone compared with vehicle-treated controls [3] | cytotoxicity (GH3.TRE cells; rat, 24 h, 100 μM) | TR antagonism % max combined ([5]; 0.3 uM) [%] | TR antagonism % max combined ([5]; 1 uM) [%] | TR antagonism % max combined ([5]; 3 uM) [%] | TR antagonism % max combined ([5]; 10 uM) [%] | IC50 [5] [µM] | TR antagonism IC10 [5] [µM] | increased levels of 17α-OH-progesterone compared with vehicle-treated controls [3] | highest exposure concentration with <10% decrease in cell viability (H295R cells) [µM] | further results
1 | Nc1nc(N)[nH]c(=O)n1 [Ammeline] |  |  |  |  |  |  |  |  |  |  |  |  |  | decrease in cell viability at highest exposure concentration (H295R cells): ≤ 10%
2 | CC(C)(C)C(O)C(Oc1ccc(-c2ccccc2)cc1)n1cncn1 (stereo not drawn) [Bitertanol] | decreased levels of androgens | significant cytotoxicity | More than 10% |  |  |  |  |  |  |  |  |  |  | IC50 [1]: 62.7 µM; % FITCT4 bound to TTR ([1]; 0.1 uM): 93.4196%; % FITCT4 bound to TTR ([1]; 0.3 uM): 88.4453%; % FITCT4 bound to TTR ([1]; 1 uM): 84.7037%; % FITCT4 bound to TTR ([1]; 3 uM): 79.29%; % FITCT4 bound to TTR ([1]; 10 uM): 64.391%; % FITCT4 bound to TTR ([1]; 30 uM): 52.4704%; % FITCT4 bound to TTR ([1]; 100 uM): 49.6904%; IC10 competing with FITC-T4 for binding to TTR [1]: 0.22 µM; IC50 [2]: 20.5 µM; decrease in viability (VM7Luc4E2 cells; 100 μM): more than 10%
3 | CC(C1CC1)C(O)(Cn1cncn1)c1ccc(Cl)cc1 (stereo not drawn) [Cyproconazole] | increased levels of progesterone and decreased levels of androgens, estrogens, and corticosteroids |  |  | up to 3.5 fold | More than 10% |  |  |  |  |  |  |  |  | 
4 | CC1COC(Cn2cncn2)(c2ccc(Oc3ccc(Cl)cc3)cc2Cl)O1 (stereo not drawn) [Difenoconazole] | no effect on androgen levels, but showed decreased levels of corticosteroids |  |  |  |  | 100.42 | 84.26 | 56.28 | 27.83 | 4.1 | 0.64 | more than 8 fold | 3 | IC50 [1]: 38.5 µM; % FITCT4 bound to TTR ([1]; 0.1 uM): 94.3698%; % FITCT4 bound to TTR ([1]; 0.3 uM): 86.9998%; % FITCT4 bound to TTR ([1]; 1 uM): 84.4625%; % FITCT4 bound to TTR ([1]; 3 uM): 79.4508%; % FITCT4 bound to TTR ([1]; 10 uM): 60.3391%; % FITCT4 bound to TTR ([1]; 30 uM): 47.2598%; % FITCT4 bound to TTR ([1]; 100 uM): 44.9874%; IC10 competing with FITC-T4 for binding to TTR [1]: 0.23 µM; IC50 [2]: 22 µM; decrease in viability (VM7Luc4E2 cells; 30 and 100 μM): more than 10%; cytotoxicity in the resazurine assay ([4]; 30 and 100 μM): significant cytotoxicity; cytotoxicity (GH3.TRE cells; 30 and 100 μM): More than 10%
5 | N#CC(CCc1ccc(Cl)cc1)(Cn1cncn1)c1ccccc1 (stereo not drawn) [Fenbuconazole] | decreased levels of androgens, estrogens, and corticosteroids | significant cytotoxicity |  |  |  |  |  |  |  |  |  | more than 8 fold |  | decrease in viability (VM7Luc4E2 cells; 100 μM): more than 10%; cytotoxicity (GH3.TRE cells; 30 and 100 μM): More than 10%
6 | CCCC1COC(Cn2cncn2)(c2ccc(Cl)cc2Cl)O1 (stereo not drawn) [Propiconazole] | no effect on androgen levels, but showed decreased levels of corticosteroids | significant cytotoxicity | More than 10% |  |  | 96.03 | 99.85 | 100.91 | 76.92 | 20.1 | 6.1 | more than 8 fold |  | TR antagonism % max combined ([5]; 30 uM): 33.08%
7 | CC(C)(C)C(O)(CCc1ccc(Cl)cc1)Cn1cncn1 (stereo not drawn) [Tebuconazole] | increased levels of progesterone and decreased levels of androgens, estrogens, and corticosteroids | significant cytotoxicity | More than 10% | up to 3.5 fold |  |  |  |  |  |  |  |  | 30 | 
8 | FC(F)C(F)(F)OCC(Cn1cncn1)c1ccc(Cl)cc1Cl (stereo not drawn) [Tetraconazole] | increased levels of progesterone and decreased levels of androgens, estrogens, and corticosteroids |  |  | up to 3.5 fold | More than 10% |  |  |  |  |  |  |  | 30 | 
9 | CC(C)(C)C(O)C(Oc1ccc(Cl)cc1)n1cncn1 (stereo not drawn) [Triadimenol] | decreased estrogen and corticosteroid levels |  |  |  | More than 10% | 102.48 | 98.41 | 105.58 | 76.69 | 21.3 | 6.3 |  |  | TR antagonism % max combined ([5]; 30 uM): 36.13%
10 | NC(Cn1cncn1)C(=O)O (stereo not drawn) [Triazole alanine] |  |  |  |  |  |  |  |  |  |  |  |  |  | decrease in cell viability at highest exposure concentration (H295R cells): ≤ 10%
